# How the values were obtained:
# Plasmodium falciparum [1] = experiment: ST_JUDE: Plasmodium falciparum K1 EC50 (uM) as measured by SYBR green dye; assay type: functional, organism-based
# Plasmodium falciparum [2] = experiment: ST_JUDE: Plasmodium falciparum 3D7 EC50 (uM) as measured by SYBR green dye; assay type: functional, organism-based
SMILES,EC50 (Plasmodium falciparum [1]),EC50 (Plasmodium falciparum [2])
CCCc1cc(O)nc(-n2nc(C)cc2NC(=O)c2cc(C(F)(F)F)cc(C(F)(F)F)c2)n1,> 15 µM,> 15 µM
CCN(CC)CCNC(=O)CCc1nnc2n(Cc3ccc(Cl)cc3)c(=O)c3ccccc3n12,> 15 µM,> 15 µM
COc1ccccc1Nc1nc(NCc2ccccc2)c2ccccc2n1,11.8 µM,3.97 µM
CC(C)Cn1c2c(c(=N)c3c1CCC3)CCCC2,3.78 µM,2.25 µM
CC(=O)c1c(C)n(CCOc2ccc(F)cc2)c2ccccc12,4.88 µM,> 15 µM
S=C(N/N=C(/c1ccccc1)c1ccccn1)Nc1ccccc1,0.48 µM,0.317 µM
CC1CCN(CCCNc2cc(NCCO)c([N+](=O)[O-])c3nonc23)CC1,> 15 µM,> 15 µM
Cc1ccc(-c2nc3ccccc3o2)cc1NC(=O)C(Cl)(Cl)Cl,1.7 µM,4.07 µM
Clc1cccc(C2Nc3ccccc3-c3nc4ccccc4n32)c1 (configuration not stated),4.63 µM,> 15 µM
Cc1cc(C)c2sc(N(Cc3cccnc3)C(=O)c3ccc(C#N)cc3)nc2c1,3.94 µM,5.77 µM
Cc1cc(Nc2ccc(C(C)C)cc2)n2ncnc2n1,0.961 µM,0.502 µM
C=CCN1C(=O)c2[nH]nc(-c3c(C)cc(C)cc3O)c2C1c1cccc(OCC)c1 (configuration not stated),2.83 µM,3.52 µM
O=C(Nc1ccc(Cl)cc1)Nc1cc(Cl)cc(Cl)c1,1.63 µM,3.21 µM
CN(C)CCCNC(=O)c1cc(-c2ccc(Cl)s2)nc2ccccc12,> 15 µM,> 15 µM
CCCCCCCn1c(=N)n(CC(O)COc2ccccc2)c2ccccc21 (configuration not stated),1.43 µM,1.59 µM
COc1ccc(-c2cn3c(n2)sc2cc(C(=O)NCCCN4CCN(C)CC4)ccc23)cc1,6.14 µM,2.04 µM
CCOC(=O)c1c(N)n(-c2ccc(F)cc2)c2nc3ccccc3nc12,> 15 µM,2.48 µM
COc1ccc(NC(=O)c2c(-c3c(Cl)cccc3Cl)noc2C)c(OC)c1,5.43 µM,> 15 µM
C#CCSc1c(CCCC)cnc2c1c(=O)n(C)c(=O)n2C,> 15 µM,> 15 µM
CCN(CC)CCCNc1nc(-c2ccc(Cl)cc2)nc2ccccc12,> 15 µM,> 15 µM
Cc1ccc2c(c1)N(C)/C(=C/c1cccc[n+]1CCO)S2,1.56 µM,1.78 µM
CCOC(=O)c1ccc(Nc2nc3nonc3nc2NCc2ccco2)cc1,> 15 µM,> 15 µM

SMILES,EC50 (Plasmodium falciparum [1]),EC50 (Plasmodium falciparum [2])
CC[n+]1c(C=C2C=CN(C)C=C2)ccc2cc(C)ccc21,0.469 µM,2.8 µM
CCN(CC)S(=O)(=O)c1ccc(C(=O)NNc2nc3c(OC)ccc(OC)c3s2)cc1,3.93 µM,> 15 µM
C[n+]1ccc(/C=C/c2ccc3c(c2)OCO3)cc1,2.39 µM,3.47 µM
O=C(Cc1ccccc1)N1CCOc2c(cc(-c3csc4ccccc34)cc2OCCc2ccccn2)C1,0.762 µM,1.63 µM
Cc1cc(N2CCCC2)nc(Nc2ccc(NS(=O)(=O)c3ccc(Cl)cc3)cc2)n1,> 15 µM,2.12 µM
CCOC(=O)c1cccc(NC(=O)CC2C(=O)N(c3ccc(Cl)cc3)C(=O)N2C2CCCC2)c1 (configuration not stated),2.7 µM,1.42 µM
COc1cccc(C2=C(C(C)=O)Sc3nncn3N2C(C)=O)c1,3.43 µM,3.01 µM
CC1CCCCN1CCCNC(=O)c1ccc2c(c1)sc1nc(-c3ccc(F)cc3)cn12 (configuration not stated),1.59 µM,0.634 µM
CC(C)(C)CC(C)(C)c1ccc(O)c(CN2CCN(c3ccccc3)CC2)c1,0.174 µM,0.354 µM
CN1CCN(c2ccc(-c3cccc(NC(=O)c4cccc([N+](=O)[O-])c4)c3)nn2)CC1,3.83 µM,> 15 µM
CC(=O)N(C1=C(N2CCCC2)C(=O)c2ccccc2C1=O)C1CCCCC1,0.399 µM,0.28 µM
COC(=O)CNC(c1ccccc1)c1cc(Br)ccc1NC(=O)c1ccc(OC)cc1 (configuration not stated),4.33 µM,4.22 µM
O=C1C(Nc2ccc(Br)cc2)=C(N2CCOCC2)C(=O)c2ccccc21,0.377 µM,1.79 µM
O=C(CN1CCN(C2CCCC2)CC1)Nc1ccc([N+](=O)[O-])cc1C(=O)Nc1ccccc1F,> 15 µM,> 15 µM
CCCS(=O)(=O)N1CCC(CO)(Cc2ccccc2C(F)(F)F)CC1,2.26 µM,3.37 µM
O=C(/C=C/c1ccco1)Nc1ccc(C(F)(F)F)cc1,> 15 µM,> 15 µM
CCCCN(CC)CCCNC(=O)Cn1ncc2c3ccccc3n(Cc3ccccc3)c2c1=O,> 15 µM,> 15 µM
CC(Sc1ccc(Cl)cc1)C(=O)Nc1ccc(Br)cc1F (configuration not stated),> 15 µM,> 15 µM
CSc1ccccc1C(=O)Nc1nc(-c2ccccn2)cs1,2.04 µM,6.82 µM
O=C(Nc1ccc([N+](=O)[O-])cc1)Nc1cc(Cl)cc(Cl)c1,> 15 µM,> 15 µM
Cc1ccc(Nc2cc(C)nc(Nc3ccc(NS(=O)(=O)c4ccc(C)cc4)cc3)n2)cc1,7.97 µM,0.621 µM
CCCCCOCC1CC2(CC(C)(c3csc(Nc4ccccc4Cl)n3)OC2=O)C(=O)O1 (configuration not stated),> 15 µM,> 15 µM

SMILES,EC50 (Plasmodium falciparum [1]),EC50 (Plasmodium falciparum [2])
COc1ccc(-c2cc(=O)oc3c4c(ccc23)OCN(Cc2ccc(F)cc2)C4)cc1,1.06 µM,5.21 µM
COc1ccc(N2CCN(C(CNC(=O)c3ccc(C(C)(C)C)cc3)c3ccco3)CC2)cc1 (configuration not stated),1.51 µM,> 15 µM
CCOC(=O)c1ccc(OCC2c3cc(OC)c(OC)cc3CCN2C(=O)Nc2ccccc2)cc1 (configuration not stated),0.776 µM,4.03 µM
CCCCCCn1c(=N)n(CC(O)COc2cccc(C)c2)c2ccccc21 (configuration not stated),0.725 µM,1.97 µM
CCCOc1cc(Br)c(C2NC(S)=NC(c3ccccc3)=C2C(C)=O)cc1OCC (configuration not stated),4.24 µM,> 15 µM
O=C(NCc1ccccc1)C1CCC(Cn2c(=O)c3ccccc3n(Cc3cccc(F)c3)c2=O)CC1 (configuration not stated),> 15 µM,> 15 µM
COc1cccc(C(=O)NCc2nnc(S)n2-c2ccc(Cl)c(Cl)c2)c1,0.0463 µM,0.0928 µM
O=C1/C(=C/c2ccc(F)cc2)Oc2c1ccc(O)c2CN1CCCCC1,0.469 µM,2.03 µM
CCc1ccc(NC(=O)C2c3cc(OC)c(OC)cc3C(=O)N(C)C2c2cccs2)cc1 (configuration not stated),3.8 µM,3.54 µM
CC(C)c1ccccc1Oc1c(C(F)(F)F)oc2c(CN3CCCC3)c(O)ccc2c1=O,1 µM,1.58 µM
CC(/C=N/NC(=O)c1cc(-c2ccc(OC(C)C)cc2)n[nH]1)=C\c1ccccc1,> 15 µM,> 15 µM
Oc1ccc(Cl)cc1CN1CCN(Cc2ccccc2)CC1,0.486 µM,1.02 µM
CCN1CCN(c2cc(C)c3cc(NC(=O)/C=C/c4ccccc4OC(C)C)ccc3n2)CC1,2.98 µM,1.06 µM
COc1ccc(CCN2C(=O)c3[nH]nc(-c4ccccc4O)c3C2c2ccc(F)cc2)cc1 (configuration not stated),> 15 µM,> 15 µM
COc1ccc(-n2c(N)c(C#N)c3nc4ccccc4nc32)cc1,1.61 µM,0.487 µM
C=CCN1C(=O)c2[nH]nc(-c3c(C)cc(C)cc3O)c2C1c1ccc(OC)cc1 (configuration not stated),1.45 µM,2.07 µM
Cc1sc(NC(=O)CSc2ccc(Cl)cc2)nc1-c1ccccc1,> 15 µM,> 15 µM
CC(C)CC(=O)NC(c1ccc(Cl)cc1)c1c(O)ccc2ccccc12 (configuration not stated),4.78 µM,4.17 µM
CCSCCN1C(=O)CSC1c1cnccc1-c1ccc(Br)cc1 (configuration not stated),> 15 µM,4.91 µM
CCCCc1ccc2nc(C)c(CN(C)C3CCN(C)CC3)c(O)c2c1,> 15 µM,> 15 µM
COC(=O)c1cc(NS(=O)(=O)c2ccccc2[N+](=O)[O-])cc(C(=O)OC)c1,> 15 µM,> 15 µM
CCC1(C)CC(CCNCc2ccc(F)cc2)(c2ccc(F)cc2)CCO1 (configuration not stated),0.518 µM,1.15 µM

SMILES,EC50 (Plasmodium falciparum [1]),EC50 (Plasmodium falciparum [2])
O=S(=O)(NCC(c1cccnc1)N1CCN(c2ccccc2F)CC1)c1ccc(F)cc1 (configuration not stated),5.33 µM,> 15 µM
CCC1(C)CC(CCNCc2ccc(F)cc2)(c2ccc(C)cc2)CCO1 (configuration not stated),0.974 µM,1.11 µM
CCN1/C(=C/c2cccc[n+]2C)Sc2ccccc21,> 15 µM,4.47 µM
CCc1cc(-c2[nH]ncc2-c2ccc(F)cc2)c(O)cc1OC,> 15 µM,> 15 µM
COc1cccc(NC(=O)Cn2c(C)c(C(=O)C(F)(F)F)c3ccccc32)c1,1.62 µM,> 15 µM
Oc1c(C(Nc2ccccn2)c2c(F)cccc2Cl)cc(Cl)c2cccnc12 (configuration not stated),> 15 µM,> 15 µM
COc1ccc(C)cc1S(=O)(=O)Nc1ccc(Nc2nc(C)cc(N3CCCC3)n2)cc1,> 15 µM,0.759 µM
CCC(C)c1ccccc1OCC(O)CNC1CCCC1 (configuration not stated),0.959 µM,1.73 µM
COC(=O)Oc1ccc2c(=O)c(Oc3ccc4ccccc4c3)c(C(F)(F)F)oc2c1,> 15 µM,> 15 µM
COc1cc2c(cc1OC)C(COc1cccc(C(F)(F)F)c1)N(C(=O)C(C)(C)C)CC2 (configuration not stated),8.91 µM,6.77 µM
NNC(=O)CNC(c1ccccc1)c1cc(Br)ccc1NC(=O)c1ccccc1Br (configuration not stated),1.65 µM,1.89 µM
NS(=O)(=O)c1ccc(NC(=O)Cc2ccc([N+](=O)[O-])cc2)cc1,> 15 µM,> 15 µM
CCCN1C(=O)c2[nH]nc(-c3c(C)cc(C)cc3O)c2C1c1ccc(OC)cc1 (configuration not stated),2.02 µM,3.36 µM
CC(C)(C)c1ccc(C(=O)Nc2c3c(nn2-c2ccc([N+](=O)[O-])cc2)CS(=O)(=O)C3)cc1,3.09 µM,10.6 µM
C=C(C)CNc1nncc(-c2ccccc2C)n1,> 15 µM,> 15 µM
Cc1cc(O)nc2nnc(SCC(=O)Nc3cccc(Cl)c3)n12,7.29 µM,> 15 µM
CCOC(=O)c1c(NC(=S)NCCc2ccccc2)sc2c1CC(C)(C)OC2,> 15 µM,> 15 µM
CCOC(=O)c1cc(NC(=O)CSc2nc3ccccc3[nH]2)ccc1Cl,3.22 µM,2.17 µM
Cn1c(-c2ccccc2[N+](=O)[O-])[n+](C)c2ccccc21,> 15 µM,7.38 µM
COC(=O)c1sc2ccccc2c1NC(=O)c1cccc(Br)c1,> 15 µM,> 15 µM
